Values belong to the molecule of their own block, whether it stands above or below them. Calls of active or inactive are those of the source. The calls are words filed in the database; no cut-off is given here.
Assays:
[1] = target: T1, DNMT3A2/3L complex (Homo sapiens) (UniProt Q9Y6K1+Q9UJW3); test: (§1) Inhibition of N-terminal His-tagged human DNMT3A (623 to 912 residues)/N-terminal GST-tagged human DNMT3L (160 to 387 residues) co-expressed in baculovirus infected Sf9 cells assessed as DNA methylation using DNA oligonucleotide IDT-01 as substrate at 100 uM preincubated for 15 mins followed by substrate addition in presence of [3H]-SAM and measured after 4 hrs by radioactive methylation assay; conditions: time 255.0 min
[2] = target: T1, DNMT3A2/3L complex (Homo sapiens); test: as §1, with “10” for “100”; conditions: time 255.0 min
[3] = target: DNMT3A2/3L complex (Homo sapiens, UniProt Q9Y6K1); test: as §1, with “substrate” for “substrate at 100 uM”
[4] = target: DNA (cytosine-5)-methyltransferase 1 (Homo sapiens, UniProt P26358); test: Inhibition of N-terminal GST-tagged full-length recombinant human DNMT1 assessed as DNA methylation using pdI-pdC DNA as substrate preincubated for 15 mins followed by substrate addition in presence of [3H]-SAM and measured after 150 mins by radioactive methylation assay
[5] = target: DNMT3B (Homo sapiens, UniProt Q9UBC3); test: as §1, with “DNMT3B (564” for “DNMT3A (623”, “853” for “912”, “substrate” for “substrate at 100 uM”
[6] = target: T2, Histone-lysine N-methyltransferase EHMT2 (Homo sapiens, UniProt Q96KQ7); test: Inhibition of N-terminal GST-tagged human G9a expressed in baculovirus infected Sf9 cells using biotinylated histone H3 peptide as substrate preincubated for 15 mins followed by substrate addition in presence of SAM and measured after 60 mins by AlphaLISA assay
T2 sequence (Q96KQ7 whole entry): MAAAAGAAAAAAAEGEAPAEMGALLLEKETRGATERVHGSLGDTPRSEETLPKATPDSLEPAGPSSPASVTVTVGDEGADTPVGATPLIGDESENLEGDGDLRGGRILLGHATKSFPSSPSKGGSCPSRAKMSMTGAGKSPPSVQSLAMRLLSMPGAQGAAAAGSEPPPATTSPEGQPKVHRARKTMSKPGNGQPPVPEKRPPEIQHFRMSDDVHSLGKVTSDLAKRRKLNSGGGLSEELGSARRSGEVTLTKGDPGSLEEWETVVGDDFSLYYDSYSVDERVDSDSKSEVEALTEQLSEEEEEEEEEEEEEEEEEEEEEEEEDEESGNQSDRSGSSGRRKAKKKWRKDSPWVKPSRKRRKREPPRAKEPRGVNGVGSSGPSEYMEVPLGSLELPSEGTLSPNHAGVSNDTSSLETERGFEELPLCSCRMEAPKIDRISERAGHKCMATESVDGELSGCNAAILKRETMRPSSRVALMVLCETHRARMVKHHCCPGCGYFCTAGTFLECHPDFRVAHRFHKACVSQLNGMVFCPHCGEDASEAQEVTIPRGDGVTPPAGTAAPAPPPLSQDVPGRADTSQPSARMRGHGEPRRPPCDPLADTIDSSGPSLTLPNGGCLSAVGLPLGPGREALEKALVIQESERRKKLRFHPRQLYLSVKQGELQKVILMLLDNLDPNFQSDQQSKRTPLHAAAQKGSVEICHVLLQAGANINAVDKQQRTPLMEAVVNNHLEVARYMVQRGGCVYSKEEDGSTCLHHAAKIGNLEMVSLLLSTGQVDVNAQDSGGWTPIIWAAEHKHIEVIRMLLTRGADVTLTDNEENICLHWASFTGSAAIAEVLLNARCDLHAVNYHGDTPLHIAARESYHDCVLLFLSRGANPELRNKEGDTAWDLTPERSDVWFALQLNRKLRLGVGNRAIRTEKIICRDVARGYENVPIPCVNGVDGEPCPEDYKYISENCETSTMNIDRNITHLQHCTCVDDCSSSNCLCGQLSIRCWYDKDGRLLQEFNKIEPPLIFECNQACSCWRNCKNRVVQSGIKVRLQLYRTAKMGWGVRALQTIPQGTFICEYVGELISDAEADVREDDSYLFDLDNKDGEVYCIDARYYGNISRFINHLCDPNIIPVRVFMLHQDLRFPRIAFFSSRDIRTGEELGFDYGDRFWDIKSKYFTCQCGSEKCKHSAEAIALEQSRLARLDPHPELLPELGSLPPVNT

[7] = system: THP-1; test: Antiproliferative activity against human THP-1 cells assessed as inhibition of cell proliferation at 0.1 to 100 uM incubated upto 72 hrs by MTT assay; format: functional, cell-based; conditions: dose 0.1-100 µM
[8] = system: HCT-116; test: Antiproliferative activity against human HCT-116 cells assessed as inhibition of cell proliferation at 0.1 to 100 uM incubated upto 72 hrs by MTT assay; format: functional, cell-based; conditions: dose 0.1-100 µM
[9] = system: U-937; test: Antiproliferative activity against human U-937 cells assessed as inhibition of cell proliferation at 0.1 to 100 uM incubated upto 72 hrs by MTT assay; format: functional, cell-based; conditions: dose 0.1-100 µM
[10] = system: K562; test: Antiproliferative activity against human K562 cells assessed as inhibition of cell proliferation at 0.1 to 100 uM incubated upto 72 hrs by MTT assay; format: functional, cell-based; conditions: dose 0.1-100 µM
[11] = system: A549; test: Antiproliferative activity against human A549 cells assessed as inhibition of cell proliferation at 0.1 to 100 uM incubated upto 72 hrs by MTT assay; format: functional, cell-based; conditions: dose 0.1-100 µM
[12] = system: DU-145; test: Antiproliferative activity against human DU-145 cells assessed as inhibition of cell proliferation at 0.1 to 100 uM incubated upto 72 hrs by MTT assay; format: functional, cell-based; conditions: dose 0.1-100 µM
[13] = system: THP-1; test: Antiproliferative activity against human THP-1 cells assessed as inhibition of cell proliferation incubated for 72 hrs by MTT assay; format: functional, cell-based; conditions: THP-1, 72 h
[14] = system: K562; test: Antiproliferative activity against human K562 cells assessed as inhibition of cell proliferation incubated for 72 hrs by MTT assay; format: functional, cell-based; conditions: K562, 72 h
[15] = system: DU-145; test: Antiproliferative activity against human DU-145 cells assessed as inhibition of cell proliferation incubated for 72 hrs by MTT assay; format: functional, cell-based; conditions: DU-145, 72 h
[16] = Cytotoxicity activity against human PBMC cells assessed as inhibition of cell proliferation incubated for 72 hrs by MTT assay; format: toxicity, cell-based
[17] = target: DNA (cytosine-5)-methyltransferase 3A (Homo sapiens) (UniProt Q9Y6K1); test: Inhibition of DNMT3A in human HCT-116 cells assessed as increase in p53 protein level at 1 uM incubated for 72 hrs by Western blot analysis; format: cell-based
[18] = system: THP-1; test: Antiproliferative activity against human THP-1 cells assessed as inhibition of cell proliferation at 100 uM incubated for 24 to 72 hrs by MTT assay; format: functional, cell-based; conditions: time 24-72 hrs, TDE = time-dependent effect
[19] = system: HCT-116; test: Antiproliferative activity against human HCT-116 cells assessed as inhibition of cell proliferation at 100 uM incubated for 24 to 72 hrs by MTT assay; format: functional, cell-based; conditions: time 24-72 hrs, TDE = time-dependent effect
[20] = system: U-937; test: Antiproliferative activity against human U-937 cells assessed as inhibition of cell proliferation at 100 uM incubated for 24 to 72 hrs by MTT assay; format: functional, cell-based; conditions: time 24-72 hrs, TDE = time-dependent effect
[21] = system: K562; test: Antiproliferative activity against human K562 cells assessed as inhibition of cell proliferation at 100 uM incubated for 24 to 72 hrs by MTT assay; format: functional, cell-based; conditions: time 24-72 hrs, TDE = time-dependent effect
[22] = system: A549; test: Antiproliferative activity against human A549 cells assessed as inhibition of cell proliferation at 100 uM incubated for 24 to 72 hrs by MTT assay; format: functional, cell-based; conditions: time 24-72 hrs, TDE = time-dependent effect
[23] = system: DU-145; test: Antiproliferative activity against human DU-145 cells assessed as inhibition of cell proliferation at 100 uM incubated for 24 to 72 hrs by MTT assay; format: functional, cell-based; conditions: time 24-72 hrs, TDE = time-dependent effect
[24] = system: HCT-116; test: cells; conditions: Homo sapiens, HCT-116, 72 h
Description: Antiproliferative activity against human HCT-116 cells assessed as inhibition of cell proliferation incubated for 72 hrs by MTT assay

[25] = system: U-937; test: cells; conditions: Homo sapiens, U-937, 72 h
Description: Antiproliferative activity against human U-937 cells assessed as inhibition of cell proliferation incubated for 72 hrs by MTT assay

[26] = system: A549; test: cells; conditions: Homo sapiens, A549, 72 h
Description: Antiproliferative activity against human A549 cells assessed as inhibition of cell proliferation incubated for 72 hrs by MTT assay

[27] = target: DNA (cytosine-5)-methyltransferase 3A (Homo sapiens) (UniProt Q9Y6K1); test: Inhibition of DNMT3A in human HCT-116 cells assessed as downregulation of DNMT3A protein level at 1 uM incubated for 72 hrs by Western blot analysis; format: cell-based

Chain of DNA (cytosine-5)-methyltransferase 3A (Homo sapiens) (Q9Y6K1 whole entry, looked up): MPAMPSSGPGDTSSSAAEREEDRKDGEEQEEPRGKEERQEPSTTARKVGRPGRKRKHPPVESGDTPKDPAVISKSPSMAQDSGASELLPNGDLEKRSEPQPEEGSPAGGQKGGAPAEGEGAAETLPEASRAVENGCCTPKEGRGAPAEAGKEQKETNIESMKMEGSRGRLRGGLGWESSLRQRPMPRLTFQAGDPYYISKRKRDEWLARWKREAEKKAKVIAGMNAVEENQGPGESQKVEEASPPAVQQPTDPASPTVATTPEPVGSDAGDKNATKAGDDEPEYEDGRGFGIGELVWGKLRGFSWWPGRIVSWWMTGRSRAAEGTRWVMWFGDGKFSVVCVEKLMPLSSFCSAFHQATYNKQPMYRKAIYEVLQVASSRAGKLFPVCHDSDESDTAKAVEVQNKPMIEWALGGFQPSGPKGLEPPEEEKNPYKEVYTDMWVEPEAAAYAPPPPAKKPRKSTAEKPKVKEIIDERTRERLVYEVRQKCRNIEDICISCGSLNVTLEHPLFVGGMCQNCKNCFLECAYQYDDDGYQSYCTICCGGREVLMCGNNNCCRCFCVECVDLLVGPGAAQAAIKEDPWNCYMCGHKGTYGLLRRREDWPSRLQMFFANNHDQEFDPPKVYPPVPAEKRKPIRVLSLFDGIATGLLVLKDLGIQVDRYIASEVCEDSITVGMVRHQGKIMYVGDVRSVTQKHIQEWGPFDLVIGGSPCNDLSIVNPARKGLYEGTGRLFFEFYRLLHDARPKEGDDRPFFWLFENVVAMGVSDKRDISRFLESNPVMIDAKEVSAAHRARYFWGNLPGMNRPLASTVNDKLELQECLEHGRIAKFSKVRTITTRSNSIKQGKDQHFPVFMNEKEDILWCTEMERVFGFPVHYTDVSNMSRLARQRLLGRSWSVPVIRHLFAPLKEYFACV
T1 sequence (Q9UJW3 whole entry, looked up, the tested form may be a part): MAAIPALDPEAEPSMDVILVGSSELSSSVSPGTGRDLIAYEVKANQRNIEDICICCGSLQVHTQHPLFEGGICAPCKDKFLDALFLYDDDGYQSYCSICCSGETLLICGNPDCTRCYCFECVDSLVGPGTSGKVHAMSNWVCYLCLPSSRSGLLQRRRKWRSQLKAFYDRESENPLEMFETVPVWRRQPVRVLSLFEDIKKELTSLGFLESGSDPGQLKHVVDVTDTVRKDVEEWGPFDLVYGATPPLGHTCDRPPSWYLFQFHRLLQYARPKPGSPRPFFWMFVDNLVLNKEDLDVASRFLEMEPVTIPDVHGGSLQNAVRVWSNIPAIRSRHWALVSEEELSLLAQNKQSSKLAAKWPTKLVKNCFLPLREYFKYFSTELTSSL
T1 sequence (Q9Y6K1 whole entry, looked up, the tested form may be a part): as the sequence (Q9Y6K1 whole entry, looked up) above
Chain of DNMT3A2/3L complex (Q9Y6K1 whole entry, looked up, one chain of several): as the sequence (Q9Y6K1 whole entry, looked up) above
Chain of DNA (cytosine-5)-methyltransferase 1 (P26358 whole entry): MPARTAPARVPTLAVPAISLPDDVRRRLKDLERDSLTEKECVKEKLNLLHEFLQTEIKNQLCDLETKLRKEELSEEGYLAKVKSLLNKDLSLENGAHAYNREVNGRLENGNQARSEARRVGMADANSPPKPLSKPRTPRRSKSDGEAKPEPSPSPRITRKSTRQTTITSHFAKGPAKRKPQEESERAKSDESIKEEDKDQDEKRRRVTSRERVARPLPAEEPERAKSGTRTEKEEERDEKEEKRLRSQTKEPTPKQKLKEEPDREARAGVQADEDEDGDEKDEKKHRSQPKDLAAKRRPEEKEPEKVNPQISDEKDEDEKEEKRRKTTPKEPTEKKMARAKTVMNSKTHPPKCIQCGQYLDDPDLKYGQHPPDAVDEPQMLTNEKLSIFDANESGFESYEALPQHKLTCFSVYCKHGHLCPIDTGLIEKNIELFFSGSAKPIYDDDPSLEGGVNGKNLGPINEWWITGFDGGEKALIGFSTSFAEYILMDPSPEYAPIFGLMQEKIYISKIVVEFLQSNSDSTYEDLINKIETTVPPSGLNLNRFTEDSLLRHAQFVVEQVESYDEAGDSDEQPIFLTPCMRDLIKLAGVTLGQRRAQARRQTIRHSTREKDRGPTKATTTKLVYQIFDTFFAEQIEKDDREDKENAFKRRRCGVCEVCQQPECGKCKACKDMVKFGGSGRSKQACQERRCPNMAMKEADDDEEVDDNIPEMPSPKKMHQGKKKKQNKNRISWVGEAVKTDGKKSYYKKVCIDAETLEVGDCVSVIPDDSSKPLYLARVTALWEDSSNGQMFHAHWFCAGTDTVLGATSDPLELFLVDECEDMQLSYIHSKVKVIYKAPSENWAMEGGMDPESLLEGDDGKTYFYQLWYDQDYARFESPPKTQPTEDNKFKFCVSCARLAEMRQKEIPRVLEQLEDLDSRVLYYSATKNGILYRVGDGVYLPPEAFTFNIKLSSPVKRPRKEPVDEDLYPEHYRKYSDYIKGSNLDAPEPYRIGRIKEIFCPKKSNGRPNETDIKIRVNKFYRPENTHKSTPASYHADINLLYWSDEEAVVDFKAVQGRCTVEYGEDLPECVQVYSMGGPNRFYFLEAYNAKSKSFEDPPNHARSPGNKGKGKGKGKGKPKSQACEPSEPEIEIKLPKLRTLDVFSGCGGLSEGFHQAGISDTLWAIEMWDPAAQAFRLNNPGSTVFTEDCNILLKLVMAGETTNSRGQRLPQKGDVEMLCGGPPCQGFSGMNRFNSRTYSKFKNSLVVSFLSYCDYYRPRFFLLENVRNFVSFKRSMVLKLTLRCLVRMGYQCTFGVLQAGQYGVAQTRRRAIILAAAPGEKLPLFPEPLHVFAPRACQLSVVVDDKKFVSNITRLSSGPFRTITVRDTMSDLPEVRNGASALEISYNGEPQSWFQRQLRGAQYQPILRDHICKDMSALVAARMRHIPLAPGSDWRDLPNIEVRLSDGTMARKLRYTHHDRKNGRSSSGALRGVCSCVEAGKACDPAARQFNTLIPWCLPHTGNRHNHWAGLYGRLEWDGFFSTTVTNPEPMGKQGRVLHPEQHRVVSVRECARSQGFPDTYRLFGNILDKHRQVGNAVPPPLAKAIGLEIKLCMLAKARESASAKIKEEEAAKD

Compound: Cc1sc2ncn(CCCN(C)C)c(=O)c2c1C(=O)Nc1ccc(S(N)(=O)=O)nc1
inhibition [1]: 57.5%
inhibition [2]: 51.3%

Compound: Cc1oc2ncn(CCCN3CCOCC3)c(=O)c2c1C(=O)Nc1ccc(C#N)cc1
inhibition [1]: 28.4%
inhibition [2]: 22.7%

Compound: Cc1oc2ncn(CCN3CCCCC3)c(=O)c2c1C(=O)Nc1ccc(C#N)cc1
inhibition [1]: 14.3%
inhibition [2]: 25.4%

Compound: Cc1sc2ncn(CCN3CCOCC3)c(=O)c2c1C(=O)Nc1ccc(S(N)(=O)=O)nc1
inhibition [1]: 40.4%
IC50 [3]: > 100 µM
inhibition [2]: 8.3%

Compound: Cc1oc2ncn(CCCN3CCCCC3)c(=O)c2c1C(=O)Nc1ccc(C#N)cc1
inhibition [1]: 44%
inhibition [2]: 32.9%

Compound: Cc1cc(Nc2ccc(NC(=O)c3ccc(Nc4ccnc5ccccc45)cc3)cc2)nc(N)n1
IC50 [13]: 0.7 µM
IC50 [14]: 0.6 µM
IC50 [15]: 3.4 µM
IC50 at 72 h [16]: 2 µM
inhibition [27]: inactive
p53 protein level increase (active/not active) [17]: inactive
IC50 [24]: 0.9 µM
IC50 [25]: 0.7 µM
IC50 [26]: 8.9 µM

Compound: Cc1oc2ncn(CCCN(C)C)c(=O)c2c1C(=O)Nc1ccc(C#N)cc1
inhibition [1]: 36%
inhibition [2]: 36.4%

Compound: Cc1oc2ncn(CCCN3CCOCC3)c(=O)c2c1C(=O)Nc1ccc(S(N)(=O)=O)nc1
inhibition [1]: 54.2%
inhibition [2]: 36%

Continued, in another order:

inhibition [1]: 77.7%
inhibition [2]: 70.5%
IC50 [4]: 51.2 µM
IC50 [5]: > 100 µM
IC50 [6]: > 500 µM
IC50 [13]: 2.2 µM
IC50 [14]: 6.1 µM
IC50 [15]: 5.3 µM
p53 protein level increase (active/not active) [17]: Active
IC50 [24]: 0.5 µM
IC50 [25]: 1.8 µM
IC50 [26]: 11.1 µM
Compound: Cc1oc2ncn(CCN3CCCCC3)c(=O)c2c1C(=O)Nc1ccc(S(N)(=O)=O)nc1
Activity [7]: Dose-Dependent Effect
Activity [8]: Dose-Dependent Effect
Activity [9]: Dose-Dependent Effect
Activity [10]: Dose-Dependent Effect
Activity [11]: Dose-Dependent Effect
Activity [12]: Dose-Dependent Effect
IC50 at 72 h [16]: 137 µM
Activity [18]: Tde
Activity [19]: Tde
Activity [20]: Tde
Activity [21]: Tde
Activity [22]: Tde
Activity [23]: Tde

inhibition [1]: 94.1%
IC50 [3]: 1.8 µM
inhibition [2]: 69.6%
IC50 [4]: 9.6 µM
IC50 [5]: 120 µM
IC50 [6]: 308 µM
IC50 [13]: 3.3 µM
IC50 [14]: 6.5 µM
IC50 [15]: 2.8 µM
IC50 [24]: 2.1 µM
IC50 [25]: 4.2 µM
IC50 [26]: 15.7 µM
Compound: Cc1oc2ncn(CCCN3CCCC3)c(=O)c2c1C(=O)Nc1ccc(S(N)(=O)=O)nc1
Activity [7]: Dose-Dependent Effect
Activity [8]: Dose-Dependent Effect
Activity [9]: Dose-Dependent Effect
Activity [10]: Dose-Dependent Effect
Activity [11]: Dose-Dependent Effect
Activity [12]: Dose-Dependent Effect
IC50 at 72 h [16]: 161 µM
Activity [18]: Tde
Activity [19]: Tde
Activity [20]: Tde
Activity [21]: Tde
Activity [22]: Tde
Activity [23]: Tde

inhibition [1]: 18.1%
Compound: Cc1oc2ncn(Cc3ccncc3)c(=O)c2c1C(=O)Nc1ccc(S(N)(=O)=O)nc1
